Experiments:
Test in all cases: DSF assay
Assay type in all cases: binding
Conditions in all cases: 20 µM compound
BMXA = target: T1, BMXA (Homo sapiens, UniProt P51813)
T1 construct: purchased in-house DSF panel (SGC-style construct names; the trailing A/B is a construct suffix)

CSNK2A2A = target: T2, CSNK2A2A (Homo sapiens, UniProt P19784)
T2 construct: purchased in-house DSF panel (SGC-style construct names; the trailing A/B is a construct suffix)

MAP2K4 = target: T3, MAP2K4 (Homo sapiens, UniProt P45985)
T3 construct: purchased in-house DSF panel (SGC-style construct names; the trailing A/B is a construct suffix)
T3 sequence (P45985 102-367): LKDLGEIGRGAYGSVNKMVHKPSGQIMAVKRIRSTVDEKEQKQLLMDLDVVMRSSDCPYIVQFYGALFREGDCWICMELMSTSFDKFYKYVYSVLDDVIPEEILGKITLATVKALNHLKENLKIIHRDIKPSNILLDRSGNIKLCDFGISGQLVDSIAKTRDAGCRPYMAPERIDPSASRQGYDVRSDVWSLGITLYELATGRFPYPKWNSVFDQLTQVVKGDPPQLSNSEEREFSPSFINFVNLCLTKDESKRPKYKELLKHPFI

MAPK15A = target: T4, MAPK15A (Homo sapiens, UniProt Q8TD08)
T4 construct: purchased in-house DSF panel (SGC-style construct names; the trailing A/B is a construct suffix)
T4 sequence (Q8TD08 1-345): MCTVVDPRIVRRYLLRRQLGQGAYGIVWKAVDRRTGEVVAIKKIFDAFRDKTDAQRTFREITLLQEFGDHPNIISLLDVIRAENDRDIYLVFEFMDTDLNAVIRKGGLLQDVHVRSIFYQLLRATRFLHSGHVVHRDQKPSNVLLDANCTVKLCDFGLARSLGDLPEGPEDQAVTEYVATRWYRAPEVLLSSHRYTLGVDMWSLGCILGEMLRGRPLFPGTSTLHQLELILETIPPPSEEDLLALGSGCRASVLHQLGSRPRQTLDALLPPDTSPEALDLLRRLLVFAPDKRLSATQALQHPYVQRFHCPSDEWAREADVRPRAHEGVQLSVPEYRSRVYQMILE

CK2A1A = target: T5, CK2A1A (Homo sapiens, UniProt P68400)
T5 construct: purchased in-house DSF panel (SGC-style construct names; the trailing A/B is a construct suffix)
Description: (§1) Excitation and emission filters […]
(§2) curve. […] Measurements were
(§3) Kinobeads selectivity profiling of PROTACs
(§4) (Multiplexion, Heidelberg, Germany).
(§5) The cell lysate was ultracentrifuged and diluted
(§6) NaF, 1 mM DTT, protease inhibitors and phosphatase inhibitors to a final concentration of 5 mg/ml as determined by Bradford assay. For selectivity profiling of compounds the cell lysate (2.5 mg of total proteins per pulldown) was pre-incubated with increasing compound […]
(§7) µM) for 45 min at 4 °C in an end-over-end shaker. Subsequently, lysates were incubated with Kinobeads epsilon (17 µL settled beads) for 30 min at 4 °C. To assess the degree of protein depletion from the lysates by Kinobeads, the flow-through of the DMSO control was recovered

EPHA5A = target: T6, EPHA5A (Homo sapiens, UniProt P54756)
T6 construct: purchased in-house DSF panel (SGC-style construct names; the trailing A/B is a construct suffix)
T6 sequence (P54756 653-939): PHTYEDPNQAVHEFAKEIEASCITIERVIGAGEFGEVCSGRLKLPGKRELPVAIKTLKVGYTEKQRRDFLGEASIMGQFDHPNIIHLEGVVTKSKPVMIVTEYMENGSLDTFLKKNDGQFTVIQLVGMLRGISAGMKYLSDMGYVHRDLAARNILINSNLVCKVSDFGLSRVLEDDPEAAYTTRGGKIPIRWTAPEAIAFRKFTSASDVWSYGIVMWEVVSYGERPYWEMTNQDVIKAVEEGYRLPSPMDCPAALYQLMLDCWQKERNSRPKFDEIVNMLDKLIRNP
Description: as §1, §2, §3, §4, §5, §6, §7

FGFR3A = target: T7, FGFR3A (Homo sapiens, UniProt P22607)
T7 construct: purchased in-house DSF panel (SGC-style construct names; the trailing A/B is a construct suffix)
Description: as §1, §2, §3, §4, §5, §6, §7

MAP2K1A = target: T8, MAP2K1A (Homo sapiens, UniProt Q02750)
T8 construct: purchased in-house DSF panel (SGC-style construct names; the trailing A/B is a construct suffix)
Description: as §1, §2, §3, §4, §5, §6, §7

MARK3A = target: T9, MARK3A (Homo sapiens, UniProt P27448)
T9 construct: purchased in-house DSF panel (SGC-style construct names; the trailing A/B is a construct suffix)
Description: as §1, §2, §3, §4, §5, §6, §7

SLKA = target: T10, SLKA (Homo sapiens, UniProt Q9H2G2)
T10 construct: purchased in-house DSF panel (SGC-style construct names; the trailing A/B is a construct suffix)
Description: as §1, §2, §3, §4, §5, §6, §7

STK38LA = target: T11, STK38LA (Homo sapiens, UniProt Q9Y2H1)
T11 construct: purchased in-house DSF panel (SGC-style construct names; the trailing A/B is a construct suffix)
Description: as §1, §2, §3, §4, §5, §6, §7

MST3A = target: T12, MST3A (Homo sapiens, UniProt Q9Y6E0)
T12 construct: purchased in-house DSF panel (SGC-style construct names; the trailing A/B is a construct suffix)

PHKG2A = target: T13, PHKG2A (Homo sapiens, UniProt P15735)
T13 construct: purchased in-house DSF panel (SGC-style construct names; the trailing A/B is a construct suffix)
T13 sequence (P15735 6-293): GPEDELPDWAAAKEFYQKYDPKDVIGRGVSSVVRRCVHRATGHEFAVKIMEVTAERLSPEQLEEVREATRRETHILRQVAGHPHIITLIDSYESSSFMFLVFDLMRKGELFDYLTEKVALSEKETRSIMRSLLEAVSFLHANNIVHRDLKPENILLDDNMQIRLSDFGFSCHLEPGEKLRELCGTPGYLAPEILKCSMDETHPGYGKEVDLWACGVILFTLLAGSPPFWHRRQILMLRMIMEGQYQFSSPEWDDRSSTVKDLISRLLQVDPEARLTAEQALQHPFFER

ULK3A = target: T14, ULK3A (Homo sapiens, UniProt Q6PHR2)
T14 construct: purchased in-house DSF panel (SGC-style construct names; the trailing A/B is a construct suffix)
T14 sequence (Q6PHR2 1-277): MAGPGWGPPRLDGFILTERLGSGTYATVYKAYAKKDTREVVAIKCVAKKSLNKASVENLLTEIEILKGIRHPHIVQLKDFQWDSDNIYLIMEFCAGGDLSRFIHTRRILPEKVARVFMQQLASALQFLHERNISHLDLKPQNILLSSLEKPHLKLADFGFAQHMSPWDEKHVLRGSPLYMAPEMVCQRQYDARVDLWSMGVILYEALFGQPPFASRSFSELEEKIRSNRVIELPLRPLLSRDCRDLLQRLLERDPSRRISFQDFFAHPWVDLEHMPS

VRK1A = target: T15, VRK1A (Homo sapiens, UniProt Q99986)
T15 construct: purchased in-house DSF panel (SGC-style construct names; the trailing A/B is a construct suffix)
T15 sequence (Q99986 1-396): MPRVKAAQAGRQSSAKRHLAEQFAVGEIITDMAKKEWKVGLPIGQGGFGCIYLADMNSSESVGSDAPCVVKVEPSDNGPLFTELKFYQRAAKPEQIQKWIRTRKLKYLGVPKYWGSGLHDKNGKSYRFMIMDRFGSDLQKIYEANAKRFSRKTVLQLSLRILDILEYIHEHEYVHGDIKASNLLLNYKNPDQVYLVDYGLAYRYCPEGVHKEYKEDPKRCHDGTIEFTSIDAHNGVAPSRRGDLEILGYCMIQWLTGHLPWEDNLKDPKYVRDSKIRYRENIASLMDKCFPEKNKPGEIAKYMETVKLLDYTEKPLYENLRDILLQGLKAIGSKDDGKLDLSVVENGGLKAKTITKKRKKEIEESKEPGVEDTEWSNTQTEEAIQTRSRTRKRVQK

T1 sequence (P51813 411-675): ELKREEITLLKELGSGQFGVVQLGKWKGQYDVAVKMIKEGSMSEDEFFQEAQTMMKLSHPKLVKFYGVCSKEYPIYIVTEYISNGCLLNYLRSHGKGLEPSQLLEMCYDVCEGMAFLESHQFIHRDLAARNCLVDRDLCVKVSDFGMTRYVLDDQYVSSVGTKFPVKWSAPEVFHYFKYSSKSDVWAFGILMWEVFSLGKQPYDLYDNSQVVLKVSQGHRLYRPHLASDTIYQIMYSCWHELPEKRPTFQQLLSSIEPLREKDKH
T11 sequence (Q9Y2H1 90-453): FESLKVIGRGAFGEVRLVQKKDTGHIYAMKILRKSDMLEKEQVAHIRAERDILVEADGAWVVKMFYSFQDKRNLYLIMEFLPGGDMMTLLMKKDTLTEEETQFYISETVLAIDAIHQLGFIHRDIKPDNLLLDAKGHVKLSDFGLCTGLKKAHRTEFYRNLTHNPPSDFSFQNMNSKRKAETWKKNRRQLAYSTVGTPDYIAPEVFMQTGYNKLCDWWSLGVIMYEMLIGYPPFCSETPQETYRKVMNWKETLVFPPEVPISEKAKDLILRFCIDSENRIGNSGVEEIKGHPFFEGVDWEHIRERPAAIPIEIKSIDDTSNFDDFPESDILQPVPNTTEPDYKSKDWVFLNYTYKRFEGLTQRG
T8 sequence (Q02750 62-393): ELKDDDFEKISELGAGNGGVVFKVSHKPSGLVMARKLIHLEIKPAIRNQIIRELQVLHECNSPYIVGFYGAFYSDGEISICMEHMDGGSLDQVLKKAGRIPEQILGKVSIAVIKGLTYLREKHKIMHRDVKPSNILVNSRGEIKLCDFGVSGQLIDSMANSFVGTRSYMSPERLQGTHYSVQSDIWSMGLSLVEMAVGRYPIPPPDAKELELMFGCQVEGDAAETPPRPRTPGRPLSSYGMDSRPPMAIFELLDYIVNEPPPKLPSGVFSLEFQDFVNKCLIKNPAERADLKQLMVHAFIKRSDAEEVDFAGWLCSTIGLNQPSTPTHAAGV
T5 sequence (P68400 whole entry): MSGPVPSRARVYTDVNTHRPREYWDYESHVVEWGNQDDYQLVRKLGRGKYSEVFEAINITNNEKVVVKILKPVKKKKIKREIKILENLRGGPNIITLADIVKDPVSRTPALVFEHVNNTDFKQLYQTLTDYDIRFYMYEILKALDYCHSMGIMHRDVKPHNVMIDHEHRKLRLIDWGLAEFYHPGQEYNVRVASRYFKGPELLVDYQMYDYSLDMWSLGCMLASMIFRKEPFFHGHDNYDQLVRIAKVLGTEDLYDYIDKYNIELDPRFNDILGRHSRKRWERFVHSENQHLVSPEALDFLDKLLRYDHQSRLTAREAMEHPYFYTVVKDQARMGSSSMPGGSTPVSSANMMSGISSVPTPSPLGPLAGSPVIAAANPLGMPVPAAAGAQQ
T12 sequence (Q9Y6E0 4-301): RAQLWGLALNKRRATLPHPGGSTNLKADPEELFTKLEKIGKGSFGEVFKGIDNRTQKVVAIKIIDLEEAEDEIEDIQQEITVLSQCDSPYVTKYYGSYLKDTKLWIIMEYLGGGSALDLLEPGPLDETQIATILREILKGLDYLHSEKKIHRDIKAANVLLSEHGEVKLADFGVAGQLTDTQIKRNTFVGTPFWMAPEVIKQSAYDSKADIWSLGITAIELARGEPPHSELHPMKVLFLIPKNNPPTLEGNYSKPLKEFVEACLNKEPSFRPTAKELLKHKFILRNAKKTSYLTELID
T7 sequence (P22607 455-768): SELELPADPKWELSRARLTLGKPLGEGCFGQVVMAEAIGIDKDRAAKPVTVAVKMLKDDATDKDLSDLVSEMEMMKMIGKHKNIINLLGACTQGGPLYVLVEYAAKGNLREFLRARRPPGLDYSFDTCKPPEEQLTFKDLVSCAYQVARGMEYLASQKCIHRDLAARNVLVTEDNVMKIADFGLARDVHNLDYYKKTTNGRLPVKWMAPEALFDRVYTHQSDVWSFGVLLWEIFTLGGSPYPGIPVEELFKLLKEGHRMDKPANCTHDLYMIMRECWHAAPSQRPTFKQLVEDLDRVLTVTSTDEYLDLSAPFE
T2 sequence (P19784 whole entry): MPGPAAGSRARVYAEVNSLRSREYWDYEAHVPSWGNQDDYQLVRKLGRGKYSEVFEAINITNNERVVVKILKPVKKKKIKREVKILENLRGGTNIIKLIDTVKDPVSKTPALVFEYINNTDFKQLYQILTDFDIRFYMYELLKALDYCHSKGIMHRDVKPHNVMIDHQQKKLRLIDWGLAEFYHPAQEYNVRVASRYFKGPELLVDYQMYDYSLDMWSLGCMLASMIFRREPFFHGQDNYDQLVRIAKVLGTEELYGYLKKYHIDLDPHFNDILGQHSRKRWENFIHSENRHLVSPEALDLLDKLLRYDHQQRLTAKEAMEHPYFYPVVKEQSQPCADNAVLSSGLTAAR
T9 sequence (P27448 56-307): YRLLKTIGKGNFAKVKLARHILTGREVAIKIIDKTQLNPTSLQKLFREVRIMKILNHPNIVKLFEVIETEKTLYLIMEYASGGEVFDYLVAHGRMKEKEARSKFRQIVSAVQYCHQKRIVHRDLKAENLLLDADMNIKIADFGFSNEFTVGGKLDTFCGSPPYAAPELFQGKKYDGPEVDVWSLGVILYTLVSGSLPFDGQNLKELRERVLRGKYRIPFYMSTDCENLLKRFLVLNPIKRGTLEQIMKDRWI

Row | Compound | ΔTm at 20 µM (BMXA) [°C] | ΔTm at 20 µM (CSNK2A2A) [°C] | ΔTm at 20 µM (MAP2K4) [°C] | ΔTm at 20 µM (MAPK15A) [°C] | ΔTm at 20 µM (CK2A1A) [°C] | ΔTm at 20 µM (EPHA5A) [°C] | ΔTm at 20 µM (FGFR3A) [°C] | ΔTm at 20 µM (MAP2K1A) [°C] | ΔTm at 20 µM (MARK3A) [°C] | ΔTm at 20 µM (SLKA) [°C] | ΔTm at 20 µM (STK38LA) [°C] | ΔTm at 20 µM (MST3A) [°C] | ΔTm at 20 µM (PHKG2A) [°C] | ΔTm at 20 µM (ULK3A) [°C] | ΔTm at 20 µM (VRK1A) [°C]
1 | CCOC(=O)c1cc(Nc2cc(C3CC3)[nH]n2)nc(Nc2ccc(CC#N)cc2)n1 [compound 5] | 2.01 | 7.92 | 5.55 | 14.8 | 3.87 | 5.7 | 8.45 | 1.56 | 5.37 | 9.06 | 6.74 | 7.56 | 7.46 | 15.4 | 0.7
2 | CC(C)(C)OC(=O)NCCCOCCOCCOCCCNC(=O)c1cc(Nc2cc(C3CC3)[nH]n2)nc(Nc2ccc(CC#N)cc2)n1 [5-L] | 1.62 | 6.77 | 2.91 | 17 | 5.58 | 4.95 | 7 | 1.17 | 3.97 | 8.84 | 7.04 | 3.47 | 5.86 | 13.3 | 0.51
3 | CC(C)(C)OC(=O)NCCOCCOCCOCCOCCC(=O)N1CCN(c2cc(Nc3cc(C4CC4)[nH]n3)nc(Nc3ccc(CC#N)cc3)n2)CC1 [4-L] | 5.53 | 8.28 | 2.65 | 16.4 | 3.81 | 7.97 | 11.4 | 1.66 | 5.32 | 11.3 | 10.2 | 8.31 | 8.76 | 18.5 | 0.29
